This is an account of results in ChEMBL document CHEMBL4400571, “Essential structure of orexin 1 receptor antagonist YNT-707, part III: Role of the 14-hydroxy and the 3-methoxy groups in antagonistic activity toward the orexin 1 receptor in YNT-707 derivatives lacking the 4,5-epoxy ring” (Bioorg Med Chem, 2019).

The structures appear in SMILES notation. pKi: −log10 of the molar value. Some results are limits rather than exact numbers.

The first assay concerns the target T1, Orexin receptor type 2 (Homo sapiens, UniProt O43614).
T1 sequence (O43614 whole entry): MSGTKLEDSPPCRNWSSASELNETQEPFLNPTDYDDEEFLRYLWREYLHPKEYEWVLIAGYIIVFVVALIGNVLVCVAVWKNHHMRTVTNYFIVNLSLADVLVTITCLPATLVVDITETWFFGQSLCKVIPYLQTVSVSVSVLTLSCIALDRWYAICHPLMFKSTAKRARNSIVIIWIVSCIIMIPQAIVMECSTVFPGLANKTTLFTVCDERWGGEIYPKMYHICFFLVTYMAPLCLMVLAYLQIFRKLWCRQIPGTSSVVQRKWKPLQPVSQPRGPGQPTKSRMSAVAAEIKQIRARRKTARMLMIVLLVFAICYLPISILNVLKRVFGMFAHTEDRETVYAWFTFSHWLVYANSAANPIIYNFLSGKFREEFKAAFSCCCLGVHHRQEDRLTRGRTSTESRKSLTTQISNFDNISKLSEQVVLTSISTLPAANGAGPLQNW
As to the kind of experiment: Antagonist activity at human OX2 receptor expressed in CHOK1 cells assessed as inhibition of orexin-A-induced calcium mobilization preincubated for 15 mins followed by orexin-A addition and measured by FURA 2-AM dye based fluorescence assay. Type of assay: functional, cell-based. On the technique in general: A change in cytosolic calcium serves as a functional read-out for many receptors and channels.
Broadly, the pKi is the negative decadic logarithm of the Ki, by convention in mol/L. `COc1ccc2c(c1)[C@]13CCN(S(=O)(=O)c4ccccc4)[C@H](C2)C1=CC[C@H](N(C)C(=O)/C=C/c1ccoc1)C3`: the pKi was below 5.00.

Turning to `COc1ccc2c(c1)[C@]13CCN(S(=O)(=O)c4ccccc4)[C@H](C2)[C@]1(O)CC[C@@H](N(C)C(=O)/C=C/c1ccoc1)C3`, the pKi was below 5.00.

As for `COc1ccc2c(c1)[C@]13CCN(S(=O)(=O)c4ccccc4)[C@H](C2)[C@@H]1CC[C@H](N(C)C(=O)/C=C/c1ccoc1)C3`, the pKi is 7.10.

Regarding `COc1ccc2c(c1)[C@]13CCN(S(=O)(=O)c4ccccc4)[C@H](C2)C1=CC[C@@H](N(C)C(=O)/C=C/c1ccoc1)C3`, the pKi is below 5.00.

Turning to `CN(C(=O)/C=C/c1ccoc1)[C@@H]1CC[C@@]2(O)[C@H]3Cc4ccccc4[C@@]2(CCN3S(=O)(=O)c2ccccc2)C1`, the pKi was below 5.00.

Consider `COc1ccc2c3c1O[C@H]1[C@H](N(C)C(=O)/C=C/c4ccoc4)CC[C@@]4(O)[C@@H](C2)N(S(=O)(=O)c2ccccc2)CC[C@]314`, for which the pKi was below 5.00.

Consider `COc1ccc2c(c1)[C@]13CCN(S(=O)(=O)c4ccccc4)[C@H](C2)[C@@H]1CC[C@@H](N(C)C(=O)/C=C/c1ccoc1)C3`, for which the pKi was below 5.00.

With `CN(C(=O)/C=C/c1ccoc1)[C@@H]1CC[C@@]2(O)[C@H]3CC4=C(CCCC4)[C@@]2(CCN3S(=O)(=O)c2ccccc2)C1`, the pKi is below 5.00.

Take `CN(C(=O)/C=C/c1ccoc1)[C@H]1CC[C@@]2(O)[C@H]3Cc4ccccc4[C@@]2(CCN3S(=O)(=O)c2ccccc2)C1`: the pKi is 6.76.

For the molecule `CN(C(=O)/C=C/c1ccoc1)[C@H]1CC[C@@]2(O)[C@H]3CC4=C(CCCC4)[C@@]2(CCN3S(=O)(=O)c2ccccc2)C1`, the pKi was 7.04.

A further assay deals with T2, Orexin/Hypocretin receptor type 1 (Homo sapiens, UniProt O43613).
T2 sequence (O43613 whole entry): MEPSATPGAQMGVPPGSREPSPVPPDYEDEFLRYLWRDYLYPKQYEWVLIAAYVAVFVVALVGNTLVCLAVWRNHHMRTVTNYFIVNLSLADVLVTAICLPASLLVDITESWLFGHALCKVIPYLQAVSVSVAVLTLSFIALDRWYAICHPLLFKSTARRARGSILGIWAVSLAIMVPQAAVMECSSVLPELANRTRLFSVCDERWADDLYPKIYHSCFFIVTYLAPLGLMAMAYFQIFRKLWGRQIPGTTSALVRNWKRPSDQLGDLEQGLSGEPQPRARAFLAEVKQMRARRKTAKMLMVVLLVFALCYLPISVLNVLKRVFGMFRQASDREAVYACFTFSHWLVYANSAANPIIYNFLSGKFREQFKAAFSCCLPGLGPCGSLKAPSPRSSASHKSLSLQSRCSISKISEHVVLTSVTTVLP
As to the kind of experiment: Antagonist activity at human OX1 receptor expressed in CHOK1 cells assessed as inhibition of orexin-A-induced calcium mobilization preincubated for 15 mins followed by orexin-A addition and measured by FURA 2-AM dye based fluorescence assay. Type of assay: functional, cell-based.
Regarding `COc1ccc2c(c1)[C@]13CCN(S(=O)(=O)c4ccccc4)[C@H](C2)C1=CC[C@H](N(C)C(=O)/C=C/c1ccoc1)C3`, the pKi was 6.30.

Take `COc1ccc2c(c1)[C@]13CCN(S(=O)(=O)c4ccccc4)[C@H](C2)[C@@H]1CC[C@H](N(C)C(=O)/C=C/c1ccoc1)C3`: the pKi was 8.36.

As to `COc1ccc2c(c1)[C@]13CCN(S(=O)(=O)c4ccccc4)[C@H](C2)C1=CC[C@@H](N(C)C(=O)/C=C/c1ccoc1)C3`, the pKi is 8.23.

In the case of `CN(C(=O)/C=C/c1ccoc1)[C@@H]1CC[C@@]2(O)[C@H]3Cc4ccccc4[C@@]2(CCN3S(=O)(=O)c2ccccc2)C1`, the pKi was 6.34.

With `COc1ccc2c(c1)[C@]13CCN(S(=O)(=O)c4ccccc4)[C@H](C2)[C@@H]1CC[C@@H](N(C)C(=O)/C=C/c1ccoc1)C3`, the pKi was 8.26.

On to `CN(C(=O)/C=C/c1ccoc1)[C@@H]1CC[C@@]2(O)[C@H]3CC4=C(CCCC4)[C@@]2(CCN3S(=O)(=O)c2ccccc2)C1`, for which the pKi is below 5.00.

As to `CN(C(=O)/C=C/c1ccoc1)[C@H]1CC[C@@]2(O)[C@H]3Cc4ccccc4[C@@]2(CCN3S(=O)(=O)c2ccccc2)C1`, the pKi was 8.03.

On to `CN(C(=O)/C=C/c1ccoc1)[C@H]1CC[C@@]2(O)[C@H]3CC4=C(CCCC4)[C@@]2(CCN3S(=O)(=O)c2ccccc2)C1`, for which the pKi is 8.13.
